melting point [°C]	Compound
48 to 56	CCCCCCCCCCCCCCCCCCOc1ccc(C(=O)OCC)cc1[N+](=O)[O-]
76 to 77	OCc1ccc2c(Br)cccc2c1
180 to 181	C#CCn1c(=O)sc2cc(F)c(-n3c(=O)cc(C)n(C)c3=O)cc21
148 to 149	Oc1cncc(CCCOc2cccnc2Oc2cccc(Cl)c2)c1
281 to 283	O=C(O)c1ccc2sc3ccccc3c2c1
129 to 131	CNC(=O)c1cccc(C=O)c1O
255 to 262	Cc1cc2[nH]nnc2c(Br)c1C
216 to 218	CSc1nn2c(N)cc(CN(C)C)nc2c1S(=O)(=O)c1ccccc1
73 to 75	CC(C(=O)O)c1ccc(N)c(C(F)(F)F)c1 (stereo not drawn)
144 to 146	CC(C)Oc1cncc(Br)c1
85	Cc1c(F)cccc1Cc1c(-c2ccccc2)c2ccccn2c1C(=O)N1CCN(C(=O)OC(C)(C)C)[C@@H](CCO)C1
192 to 193	Cc1nn(-c2ccccn2)c2c1c(=O)c1ccccc1n2C
197 to 198	CCCCc1nc2c(N)nc3ccccc3c2n1CCCNS(=O)(=O)c1ccc(C)cc1
154	CCCCCn1cc(C(=O)O)c(=O)c(I)c1C
192 to 193	Cc1nc(Cn2c(=O)sc3cc(F)c([N+](=O)[O-])cc32)no1
82 to 83	CCCCC(CC)COC(=O)C(=Cc1ccc(-c2nc3ccccc3o2)cc1)C(=O)CC (stereo not drawn)
143 to 145	O=C(N[C@@H](Cc1ccccc1)C(=O)O)OCC1c2ccccc2Oc2ccccc21
53 to 55	CCOC(=O)c1c(C(F)(F)F)nc(C(F)F)c(C(=O)OC)c1NC(C)C
270	COc1ccc2oc(N)c(C(N)=O)c(=O)c2c1
86 to 87	CCCCCCc1ccc(-c2ccc(COC(c3ccccc3)(c3ccccc3)c3ccccc3)cc2[N+](=O)[O-])cc1
193	Nc1c(SC(F)(F)F)c(C(=O)NC2CC2)nn1-c1c(Cl)cc(C(F)(F)F)cc1Cl
> 250	CS(=O)(=O)Nc1cc2occc(=O)c2cc1O
222 to 224	Nc1nc2c(Cc3ccsc3)c[nH]c2c(=O)[nH]1
152 to 155	CC(=O)NCc1ccc(CN2CCN(c3nccc(N(C)C)n3)CC2)cc1
111 to 113	C[Si](C)(C)OC1(C(=O)c2ccccc2)CC2CCC(C1)N2CCCC(c1ccc(F)cc1)c1ccc(F)cc1 (stereo not drawn)
82 to 84	C[N+](C)([O-])c1ccc(/C=C/c2c(F)cccc2Cl)cc1

melting point [°C]	Compound
220 to 223	CCCN(CO)c1nc(NCc2ccccc2)c2nc(Cl)n(C(C)C)c2n1
105 to 107	CC(C)NS(=O)(=O)c1cc(Br)cc(Br)c1
285 to 286	COc1cc2c(=O)n(CCO)c3c4cc5c(cc4ncc3c2cc1OC)OCO5
83	COC(=O)CNc1cccc(I)c1
138 to 140	Nc1nc2c(OCCOc3nccnc3N3CCNCC3)cccc2o1
120 to 123	CCCCSc1nc(N)nc2c1ncn2C1C=CC(CO)C1 (stereo not drawn)
143 to 144	O=c1cc(-c2cc[nH]n2)oc2ccccc12
100 to 110	O=C1C(c2ccc(O)cc2)=C(c2ccccc2)c2ccc(O)cc21
104	CC(=O)NCC1(N2CCCCC2)CCCCC1
210 to 211	CCOC(=O)Nc1cn2nc(OCc3cc(OC)ccc3OC)ccc2n1
378	COc1ccc(-c2sc(Nc3cnccn3)nc2C)cc1S(N)(=O)=O
167	FC(F)(F)c1ccc(-c2ncc(Br)cn2)cc1
48 to 51	Cc1nc(-c2ccccc2)c(-c2ccccc2)nc1N(C)CCCCOCC(=O)OC(C)(C)C
94 to 96	CC(=O)NCc1ncccc1OCc1ccccc1
56 to 57	CC1(C)C(Cl)C(=O)C1CC(Cl)(Cl)Cl (stereo not drawn)
213 to 215	CCOC(=O)C1=C(C)NC(=O)N(C(N)=O)C1c1cccc([N+](=O)[O-])c1 (stereo not drawn)
146	c1csc(-c2cc(-c3cccs3)ncn2)c1
217 to 218	Cc1cccc2c(=O)[nH]c(N3CCC(N(C)C)CC3)cc12
115 to 118	CCN(CCC(=O)O)C(=S)Nc1c(C)cccc1C
38 to 42	COC(=O)CC(=O)c1ccccc1OCc1ccccc1C
216 to 217	O=C(O)c1ccc(NCc2cccc(C(F)(F)F)c2)cn1
162 to 164	O=C(Nc1ccnn1-c1ccc(Cl)cc1Cl)c1cccnc1Cl
75 to 78	CN(CC(=O)N1c2ccccc2N(Cc2ccccc2)C(=O)[C@H]2CCC[C@H]21)Cc1ccccc1 (relative stereo)
122 to 123	Nc1ccn(-c2ccc(Br)cc2)n1
150 to 152	CC(C)CCS(=O)(=O)NC(=O)/C=C/c1cc(OC2CCOCC2)nn1Cc1ccc(C(F)(F)F)cc1Cl
85 to 86	Oc1ccc(Oc2ccc(Cl)cc2)cc1

melting point [°C]	Compound
103	OCCCCCCCCCCCCCCC(O)CNCCO (stereo not drawn)
123 to 126	CC(=O)C=C(c1ccc(C#N)cc1)n1ccnc1
117 to 119	CC(C)CNc1cc[nH]c(=S)c1C#N
120	O=C(CC1(S(=O)c2ccc(Oc3ccc(F)cc3)cc2)CCOCC1)NO (stereo not drawn)
263 to 264	CCn1nc(-c2ccccc2)c(C(C)=O)c(Nc2cccc3cn[nH]c23)c1=O
188 to 189	O=C(c1ccccc1)c1cccc2c(CC(C(=O)O)C(=O)O)c[nH]c12
90 to 92	COC(=O)C1C=CCN2C(=O)C(CCI)(Cc3ccccc3)C(=O)N12 (stereo not drawn)
198 to 202	CCn1ncc(C(=O)c2ccc(S(C)(=O)=O)c(N3CCOC(=O)C3)c2Cl)c1O
207 to 209	O=C(Nc1cc(C2CC2)n[nH]1)c1ccc[nH]1
133 to 134	CNC(=NCCSCc1[nH]cnc1C)NS(C)(=O)=O
191 to 193	CSC1(Cl)C(=O)Nc2ccc(C(F)(F)F)cc21 (stereo not drawn)
132 to 134	CC(C)c1ccc(-n2ncc(C(=O)NC34CC5CC(CC(C5)C3)C4)c2OCCN2CCOCC2)cc1
255 to 256	CCc1nc2c(N)nc(C)c(C)c2n1Cc1cc(-c2ccc(F)cc2)no1
272 to 273	CCc1[nH]n(C2CCCC2)c2nc(-c3ccccc3O)nc(=O)c1-2
56 to 58	CCCOC1C=CC(=O)N1S(=O)(=O)c1ccccc1 (stereo not drawn)
144 to 146	COC(=O)c1cc(=NS(=O)(=O)c2ccccc2)c2ccccc2o1
147 to 149	Cc1ccc(NCC2CCNCC2)c(C(=O)Nc2ccc(F)cn2)c1
76 to 82	CCN(CC)CCCOc1ccc(C[C@H](NC(=O)[C@@H]2CCCN2S(=O)(=O)c2ccc(C)cc2)C(=O)O)cc1
92 to 93	COc1ccc(Cc2ccc(Sc3ccccc3)s2)cc1
195 to 200	O=C(Cn1ccnc1)c1ccccc1O
58 to 61	CC(C)[C@H](NC(=O)N(C)Cc1ccccn1)C(=O)N[C@@H](Cc1ccccc1)C[C@H](O)[C@H](Cc1ccccc1)NC(=O)OCc1cccnc1
132 to 134	CC(C)c1ccc(S(=O)(=O)n2c(COC(C)(C)C(=O)O)cc3cc(C(F)(F)F)ccc32)cc1
215 to 216	O=C(Nc1nccs1)C1=C(O)c2ccsc2S(=O)(=O)C1
205 to 207	CCOCc1nc2c(c(C)c(C)n3nnnc23)n1CCNC(=O)N1CCOCC1
100 to 103	CCCc1c(OCC(O)COc2ccc(C(=O)O)cc2Cl)ccc(C(C)=O)c1O (stereo not drawn)
110	O=C(COc1ccc(Cl)cc1Cl)OCNC(=O)Oc1cccc(Cl)c1

melting point [°C]	Compound
164 to 167	CCCn1c(COCC)nc2c(N)nc3ccc(OCCCCCCNS(C)(=O)=O)cc3c21
163 to 165	O=C1CCC(N2C(=O)c3ccc(CNC(=O)C4CC4)cc3C2=O)C(=O)N1 (stereo not drawn)
178	CCn1nc(-c2ccc(OC)c(F)c2)c(-c2ccc(OC)c(F)c2)cc1=O
140	O=C(O)CSSc1ccc([N+](=O)[O-])cc1C(Cl)(Cl)Cl
197 to 198	COc1ccc(C(=O)Nc2ccc3oc4c(c3c2)CCCC4)cc1
117 to 118	Nc1nc(N2CCN(CCCC3(c4ccc(F)cc4)OCCO3)CC2)ccc1[N+](=O)[O-]
266 to 268	Clc1ccc(-c2[nH]nc3c2Cc2ccccc2-3)cc1
123	CNC(=O)c1ccc(F)c2c1CC(N(CCCCc1c[nH]c3ccc(F)cc13)C1CCC1)CO2 (stereo not drawn)
92 to 94	C(=Nc1ccccn1)N(c1ccccc1)c1ccccc1
57 to 59	CCOC(=O)c1ccc(-c2ccc(C=O)cc2)cc1
107 to 109	CC(C)(CCCSCCNS(=O)(=O)c1ccc(Cl)cc1)C(=O)O
209 to 210	COc1ccc(OC)c(C=CC(=O)Nc2cnc3c(C)cc(C)cc3c2-c2ccccc2Cl)c1
190 to 194	CC12CCC3c4ccc(O)cc4C(=O)C(Sc4ccc(Br)cc4)C3C1CCC2O (stereo not drawn)
140 to 144	Cc1noc(C)c1S(=O)(=O)n1c(=O)sc2ccccc21
111 to 112	CN(Cc1ccc([N+](=O)[O-])cc1)Cc1nc(-c2cc(C(C)(C)C)c(O)c(C(C)(C)C)c2)cs1
160 to 161	O=c1ccn(-c2cccc(S(=O)(=O)c3nc4ccccc4[nH]3)c2)nc1-c1ccnn1-c1ccccc1
208 to 210	O=[N+]([O-])c1cccc(CNc2nnn[nH]2)c1
235 to 236	O=c1c(CCC(O)c2ccncc2)cc2cccnc2n1-c1cccc([N+](=O)[O-])c1 (stereo not drawn)
97 to 99	CC(C)(C)OC(=O)NCCn1cc(C#N)c(-c2cccc(F)c2)c1Cl
163 to 164	C#CCOc1c(Cl)cc(Cl)cc1C(=O)O
185 to 187	COc1ccc(Nc2nc(N)nc3c(OC)cccc23)c(C)c1
111 to 113	COc1cccc(C(O)(CC2CCNCC2)c2cccc(OC)c2)c1
107	CCOC(=O)Nc1cc(F)c(C#N)cc1F

Compound	melting point [°C]
CCOc1cc2c(cc1OCC)C(CC)C(C)=NN=C2c1ccc(OC)c(OC)c1 (stereo not drawn)	91 to 93
CSCCCN1C(=O)C(NC(=O)c2cc3ccccc3[nH]2)N=C(c2ccccc2)c2ccccc21 (racemic)	216 to 221

— a melting point compilation (Tetko et al.; mined from patent text by program, amines drawn as free bases though some values may be those of a salt)
